Experimental data as given in patent US10472347B2, “Aminopyrazine compounds with A2A antagonist properties” (Merck Sharp & Dohme Corp., priority 2014, dated 2019).

Each compound was assayed against T1, human A2a receptor (Homo sapiens, UniProt P29274) (assay: A2a competition binding assay, Scintillation Proximity technology). Details: membranes from HEK293 cells expressing human A2a receptor; 0.5 nM tritiated ligand.
T1 construct: purchased Perkin-Elmer RBHA2AM400UA; host or cells: HEK293 cells (membranes)
T1 sequence (P29274 whole entry): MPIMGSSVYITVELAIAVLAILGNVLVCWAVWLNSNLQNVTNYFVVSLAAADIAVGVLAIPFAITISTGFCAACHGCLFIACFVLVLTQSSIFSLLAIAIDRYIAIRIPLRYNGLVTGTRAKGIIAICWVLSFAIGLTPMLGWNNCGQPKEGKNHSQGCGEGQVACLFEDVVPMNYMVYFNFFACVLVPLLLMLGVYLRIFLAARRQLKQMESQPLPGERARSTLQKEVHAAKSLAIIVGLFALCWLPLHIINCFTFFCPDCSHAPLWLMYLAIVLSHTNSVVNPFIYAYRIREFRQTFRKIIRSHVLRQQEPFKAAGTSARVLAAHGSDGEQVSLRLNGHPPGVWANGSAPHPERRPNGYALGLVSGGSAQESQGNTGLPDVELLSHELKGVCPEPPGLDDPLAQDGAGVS
Description: Binding affinities of compounds of the invention for the human A2a receptor were determined in a competition binding assay using Scintillation Proximity technology. Thus, […] from HEK293 cells expressing the human A2a receptor were incubated with a compound of the invention at concentrations ranging from 3000 nM to 0.15 nM in a reaction mixture containing also 0.5 nM of a tritiated form of 5-amino-7-[2-phenethyl]-2-(furan-2-yl)-7H-pyrazolo[4,3-e][1,2,4]triazolo[1,5-c]pyrimidine (the tritiated compound) and 100 μg of wheat germ agglutin-coated yttrium silicate SPA beads for one hour at room temperature with agitation. The beads were then allowed to settle to the bottom of the wells for 1 hr, after which the membrane-associated radioactivity was determined by scintillation counting in a TopCount microplate reader. Ki values were determined using the Cheng-Prusoff equation.
HEK293 cells expressing the human, rat, dog or monkey adenosine 2a receptor (Purchased from Perkin-Elmer # RBHA2AM400UA).
The Tritiated compound was prepared in-house by MRL Radiochemistry according to published methods.
Wheat germ agglutinin-coated yttrium silicate SPA beads (GE Healthcare #RPNQ0023). Dilute to 25 mg/ml in assay buffer.
Assay Buffer was prepared in house: Dulbecco's calcium and magnesium free phosphate buffered saline+10 mM MgCl2
Adenosine deaminase from calf intestine, 10 mg/2 ml (Roche #10 102 105 001).
A2a antagonist standard (9-chloro-1-(2-furanyl)-[1,2,4]triazolo1,5-c]quinazolin-5-amine from Tocris Bioscience)
Make eight 1:3 serial dilutions in 100% DMSO from a 3 mM compound stock
Transfer 50 nl of compound into a 384-well OptiPlate (Perkin Elmer).
Typically, final concentrations of compound used in the assay ranged from 3000 nM to 0.152 nM.
Dilute a solution of the Tritiated compound to 1.25 nM in assay buffer. This is a 2.5× solution. The final concentration in the assay is 0.5 nM. Calculate the concentration by counting two 5 μl aliquots.
Use 0.25 ug of membrane/well. Dilute membranes to 9.7 μg/ml in assay buffer. Treat with 20 ug/ml adenosine deaminase (ADA) for 15 minutes at room temperature to degrade endogenous adenosine.
Use 100 μg/well wheat germ agglutinin-coated yttrium silicate SPA beads.
Mix ADA-treated membranes and SPA beads together for 30 min prior to assay.
To the Perkin-Elmer Optiplate-384 containing the compound titration add 20 μl of 2.5× solution of the Tritiated compound and 30 μl of the membrane-bead mixture. Incubate for one hour at room temperature with agitation.
Include total binding (assay buffer+1% DMSO) and non-specific binding (CGS15943, 1 μM) wells.
Allow the beads to settle for one hour.
A curve fitting program (i.e., Prism, Activity Base, Chemcart) is used to determine the EC50. The Ki value is calculated using the Cheng-Prusoff equation. Ki=EC50/(1+(radioligand concentration/Kd))
Work on `Cc1nc(C(=O)NCc2cccc3cccnc23)c(N)nc1-c1ncco1` [Ex-9, 3-amino-6-methyl-5-(1,3-oxazol-2-yl)-N-(quinolin-8-ylmethyl)pyrazine-2-carboxamide] yielded an EC50 of 2.1 nM.

Same assay, conditions: membranes from HEK293 cells expressing human A2a receptor; Ki by Cheng-Prusoff equation
With `Nc1nc(-n2nccn2)c(CO)nc1C(=O)NCc1cccc2cccnc12` [Ex-388, 3-amino-6-(hydroxymethyl)-N-(quinolin-8-ylmethyl)-5-(2H-1,2,3-triazol-2-yl)pyrazine-2-carboxamide] the Ki was 2.5 nM. Compound `COc1cccc(CNC(=O)c2nc(C)c(-c3ncco3)nc2N)c1` [Ex-143, 3-amino-N-(3-methoxybenzyl)-6-methyl-5-(1,3-oxazol-2-yl)pyrazine-2-carboxamide] has a Ki of 1.72 nM. With `Cc1nc(C(=O)NCc2nc3ccccc3s2)c(N)nc1-c1ncco1` [Ex-149, 3-amino-N-(1,3-benzothiazol-2-ylmethyl)-6-methyl-5-(1,3-oxazol-2-yl)pyrazine-2-carboxamide] the Ki was 0.855 nM. With `Cc1nc(C(=O)N2CCc3cccnc3C2)c(N)nc1-c1ncco1` [Ex-125, 3-(5,8-dihydro-1,7-naphthyridin-7(6H)-ylcarbonyl)-5-methyl-6-(1,3-oxazol-2-yl)pyrazin-2-amine] the Ki was 18.8 nM. Work on `COc1ccccc1CNC(=O)c1nc(C)c(-c2ncco2)nc1N` [Ex-144, 3-amino-N-(2-methoxybenzyl)-6-methyl-5-(1,3-oxazol-2-yl)pyrazine-2-carboxamide] yielded a Ki of 0.382 nM. Compound `Cc1cnn(-c2nc(N)c(C(=O)NCc3nc4ccccc4o3)nc2Cl)c1` [Ex-356, 3-amino-N-(1,3-benzoxazol-2-ylmethyl)-6-chloro-5-(4-methyl-1H-pyrazol-1-yl)pyrazine-2-carboxamide] has a Ki of 4.3 nM. `Nc1nc(-n2nccn2)c(Cl)nc1C(=O)NCc1nc2ccccc2s1` [Ex-298, 3-amino-N-(1,3-benzothiazol-2-ylmethyl)-6-chloro-5-(2H-1,2,3-triazol-2-yl)pyrazine-2-carboxamide] showed a Ki of 32.9 nM. `Cc1nc(C(=O)NCc2cccc3cccnc23)c(N)nc1-c1ncco1` [Ex-9, 3-amino-6-methyl-5-(1,3-oxazol-2-yl)-N-(quinolin-8-ylmethyl)pyrazine-2-carboxamide] showed a Ki of 0.64 nM. With `Cc1cnn(-c2nc(N)c(C(=O)NCc3cnc4ccccn34)nc2Cl)c1` [Ex-360, 3-amino-6-chloro-N-(imidazo[1,2-a]pyridin-3-ylmethyl)-5-(4-methyl-1H-pyrazol-1-yl)pyrazine-2-carboxamide] the Ki was 615 nM. `Cc1nc(C(=O)N[C@H]2CCC[C@@H]2O)c(N)nc1-c1ncco1` [Ex-211, 3-amino-N-[(1S,2S)-2-hydroxycyclopentyl]-6-methyl-5-(1,3-oxazol-2-yl)pyrazine-2-carboxamide] gave a Ki of 7.37 nM. `Cc1nc(C(=O)NCc2nccnc2F)c(N)nc1-c1ncco1` [Ex-172, 3-amino-N-[(3-fluoropyrazin-2-yl)methyl]-6-methyl-5-(1,3-oxazol-2-yl)pyrazine-2-carboxamide] was tested, and the Ki was 3.05 nM. Work on `Nc1nc(-n2nccn2)c(Cl)nc1C(=O)NCc1nc2ccccc2[nH]1` [Ex-302, 3-amino-N-(1H-benzimidazol-2-ylmethyl)-6-chloro-5-(2H-1,2,3-triazol-2-yl)pyrazine-2-carboxamide] yielded a Ki of 28.3 nM. Compound `Cc1cnc(CNC(=O)c2nc(C)c(-c3ncco3)nc2N)nc1` [Ex-185, 3-amino-6-methyl-N-[(5-methylpyrimidin-2-yl)methyl]-5-(1,3-oxazol-2-yl)pyrazine-2-carboxamide] has a Ki of 4.25 nM. With `Cc1nc(C(=O)NCc2cc(F)ccc2O)c(N)nc1-c1ncco1` [Ex-129, 3-amino-N-(5-fluoro-2-hydroxybenzyl)-6-methyl-5-(1,3-oxazol-2-yl)pyrazine-2-carboxamide] the Ki was 0.198 nM. In the case of `Cc1nc(C(=O)N[C@@H]2CCC[C@H]2F)c(N)nc1-c1ncco1` [Ex-206, 3-amino-N-[(1R,2R)-2-fluorocyclopentyl]-6-methyl-5-(1,3-oxazol-2-yl)pyrazine-2-carboxamide], the Ki is reported as 3.72 nM. `Nc1ccccc1CNC(=O)c1nc(Cl)c(-n2nccn2)nc1N` [Ex-303, 3-amino-N-(2-aminobenzyl)-6-chloro-5-(2H-1,2,3-triazol-2-yl)pyrazine-2-carboxamide] was tested, and the Ki was 14.4 nM. Work on `CCn1cc2c(CNC(=O)c3nc(C)c(-c4ncco4)nc3N)cccc2n1` [Ex-243, 3-amino-N-[(2-ethyl-2H-indazol-4-yl)methyl]-6-methyl-5-(1,3-oxazol-2-yl)pyrazine-2-carboxamide] yielded a Ki of 15.1 nM. In the case of `Cc1nc(C(=O)NCC(C)(F)F)c(N)nc1-c1cnco1` [Ex-262, 3-amino-N-(2,2-difluoropropyl)-6-methyl-5-(1,3-oxazol-5-yl)pyrazine-2-carboxamide], the Ki is reported as 340 nM. `Cc1cnn(-c2nc(N)c(C(=O)NCc3ccccc3)nc2Cl)c1` [Ex-358, 3-amino-N-benzyl-6-chloro-5-(4-methyl-1H-pyrazol-1-yl)pyrazine-2-carboxamide] showed a Ki of 73.3 nM. `Cc1nc(C(=O)NC2CCc3c(Cl)ccnc32)c(N)nc1-c1ncco1` (single isomer, unassigned) [Ex-244A, 3-amino-N-(4-chloro-6,7-dihydro-5H-cyclopenta[b]pyridin-7-yl)-6-methyl-5-(1,3-oxazol-2-yl)pyrazine-2-carboxamide] showed a Ki of 0.22 nM. `Nc1nc(-n2nccn2)c(Cl)nc1C(=O)NCc1ccc(F)cc1F` [Ex-271, 3-amino-6-chloro-N-(2,4-difluorobenzyl)-5-(2H-1,2,3-triazol-2-yl)pyrazine-2-carboxamide] showed a Ki of 6.19 nM. `COc1ccc(C(C)(C)O)nc1CNC(=O)c1nc(C)c(-c2ncco2)nc1N` [Ex-237, 3-amino-N-{[6-(1-hydroxy-1-methylethyl)-3-methoxypyridin-2-yl]methyl}-6-methyl-5-(1,3-oxazol-2-yl)pyrazine-2-carboxamide] gave a Ki of 1.77 nM. Work on `Cc1nc(C(=O)NCc2cccnc2)c(N)nc1-c1ncco1` [Ex-28, 3-amino-6-methyl-5-(1,3-oxazol-2-yl)-N-(pyridin-3-ylmethyl)pyrazine-2-carboxamide] yielded a Ki of 14.5 nM. Compound `Cc1nc(C(=O)NCc2nccn2C(C)C)c(N)nc1-c1ncco1` [Ex-87, 3-amino-6-methyl-N-{[1-(1-methylethyl)-1H-imidazol-2-yl]methyl}-5-(1,3-oxazol-2-yl)pyrazine-2-carboxamide] has a Ki of 0.471 nM. `Cc1nc(C(=O)NC2c3ncccc3CC2O)c(N)nc1-c1ncco1` (single isomer, unassigned) [Ex-238B, 3-amino-N-(6-hydroxy-6,7-dihydro-5H-cyclopenta[b]pyridin-7-yl)-6-methyl-5-(1,3-oxazol-2-yl)pyrazine-2-carboxamide] showed a Ki of 0.94 nM. `Cc1nc(C(=O)NCc2ccno2)c(N)nc1-c1ncco1` [Ex-12, 3-amino-N-(isoxazol-5-ylmethyl)-6-methyl-5-(1,3-oxazol-2-yl)pyrazine-2-carboxamide] was tested, and the Ki was 9.82 nM. `Cc1nc(C(=O)N2CCC2c2ccccc2)c(N)nc1-c1ncco1` (stereo not shown) [Ex-131, 5-methyl-6-(1,3-oxazol-2-yl)-3-[(2-phenylazetidin-1-yl)carbonyl]pyrazin-2-amine] showed a Ki of 10.3 nM. With `Nc1nc(-n2nccn2)c(Cl)nc1C(=O)N[C@H]1C[C@@]1(F)c1ccccc1` [Ex-317, 3-amino-6-chloro-N-[(1S,2R)-2-fluoro-2-phenylcyclopropyl]-5-(2H-1,2,3-triazol-2-yl)pyrazine-2-carboxamide] the Ki was 2200 nM. For `Cc1nc(C(=O)NCc2cncs2)c(N)nc1-c1ncco1` [Ex-17, 3-amino-6-methyl-5-(1,3-oxazol-2-yl)-N-(1,3-thiazol-5-ylmethyl)pyrazine-2-carboxamide], the Ki was 17.3 nM. `Nc1nc(-n2cncn2)c(Cl)nc1C(=O)NCc1ccc(F)cc1F` [Ex-328, 3-amino-6-chloro-N-(2,4-difluorobenzyl)-5-(1H-1,2,4-triazol-1-yl)pyrazine-2-carboxamide] gave a Ki of 627 nM.
